This note sets out measurements from article PMC8875489, “Pharmaceutical and Safety Profile Evaluation of Novel Selenocompounds with Noteworthy Anticancer Activity” (Pharmaceutics, 2022).

A short description of the first data set: Chemical stability in acidic and alkaline environments (TLC-monitored). The class given is physicochemical. The note with it: 2 mg/mL in methanol + 10% HCl 1:1; TLC at 10 min, 1, 2, 3, 24, 48 h. How it is done: The chemical stability of the new organic selenocompounds was evaluated in two different environments (acidic and alkaline). Firstly, tested selenocompounds were dissolved in pure anhydrous methanol to obtain a stock solution with a concentration of 2 mg/mL. Then, the solution was divided into two equal parts. A 10% solution of HCl was added in 1:1 proportion to the first part, and a 10% solution of NaOH was added to the second part in the same 1:1 proportion. Then, the stability of the tested Se compounds, either in the acidic or in the basic conditions, was TLC-monitored at specific time periods: 10 min and 1, 2, 3, 24, and 48 h. The following eluents were used: (i) methylene chloride for EDA-26, EDA-73, EDA-74, EDA-93, EDA-109, EDA-119, EDA-120, and EDA-122; a mixture of n-hexane and ethyl acetate in a 4:1 ratio for EDA-58; (ii) chloroform for EDA-71 and EDA-A6; and (iii) acetone for EDA-117.
In the next step of the experiments, the chemical stability of 11 selenoesters (EDA-26, EDA-71, EDA-73, EDA-74, EDA-58, EDA-93, EDA-109, EDA-117, EDA-119, EDA-120 and EDA-122) and the selenoanhydride EDA-A6 in acidic and alkaline environments was evaluated by the use of a previously described method. Unfortunately, it was not possible to estimate the chemical stability of the compounds EDA-46, EDA-53, EDA-56, and […] due to their physicochemical properties: they were liquid at room temperature in the form of an oil, which is not miscible with water.
On to `COC(=O)C[Se]C(=O)c1cc(OC)c(OC)c(OC)c1` [EDA-26, methyl 2-((3,4,5-trimethoxybenzoyl)selanyl)acetate], for which the “chemical stability in the acidic environment” value is listed as “stable till the end of the analysis (48 h)”.

Regarding `C[Se]C(=O)c1ccc(C(=O)[Se]C)cc1` [EDA-109, Se,Se-dimethyl benzene-1,4-bis(carboselenoate)], the “chemical stability in the acidic environment” value was “stable till the end of the analysis (48 h)”.

As for `C[Se]C(=O)c1cccc(C(=O)[Se]C)c1` [EDA-120, Se,Se-dimethyl benzene-1,3-bis(carboselenoate)], the “chemical stability in the acidic environment” value was “stable till the end of the analysis (48 h)”.

In the case of `O=C(C[Se]C(=O)c1ccccc1)Oc1ccccc1` [EDA-93, phenyl 2-(benzoylselanyl)acetate], the “chemical stability in the acidic environment” value is on record as “unstable”.

For the molecule `CC(=O)C[Se]C(=O)c1ccc(Cl)cc1` [EDA-71, Se-(2-oxopropyl) 4-chlorobenzoselenoate], the “chemical stability in the acidic environment” value was “totally unstable”.

Regarding `CC(C)(C)C(=O)C[Se]C(=O)c1ccc(Cl)cc1` [EDA-73, Se-(3,3-dimethyl-2-oxobutyl) 4-chlorobenzoselenoate], the “chemical stability in the acidic environment” value is “stable till the end of the experiment (48 h)”.

As for `COc1cc(OC)cc(C(=O)[Se]CC(=O)C(C)(C)C)c1` [EDA-74, Se-(3,3-dimethyl-2-oxobutyl) 3,5-dimethoxybenzoselenoate], the “chemical stability in the acidic environment” value is reported as “stable till the end of the experiment (48 h)”.

Still in this data set, the particulars now being: 2 mg/mL in methanol + 10% NaOH 1:1; TLC at 10 min, 1, 2, 3, 24, 48 h.
Turning to `COC(=O)C[Se]C(=O)c1cc(OC)c(OC)c(OC)c1` [EDA-26, methyl 2-((3,4,5-trimethoxybenzoyl)selanyl)acetate], the “chemical stability in the alkaline environment” value is listed as “totally unstable”.

For `O=C1[Se]C(=O)c2ccccc21` [EDA-A6, benzo[c]selenophene-1,3-dione], the “chemical stability in the alkaline environment” value was “unstable”.

Turning to `C[Se]C(=O)c1ccc(C(=O)[Se]C)cc1` [EDA-109, Se,Se-dimethyl benzene-1,4-bis(carboselenoate)], the “chemical stability in the alkaline environment” value is recorded as “totally unstable”.

As to `C[Se]C(=O)c1cccc(C(=O)[Se]C)c1` [EDA-120, Se,Se-dimethyl benzene-1,3-bis(carboselenoate)], the “chemical stability in the alkaline environment” value is on record as “totally unstable”.

For `O=C(C[Se]C(=O)c1ccccc1)Oc1ccccc1` [EDA-93, phenyl 2-(benzoylselanyl)acetate], the “chemical stability in the alkaline environment” value is on record as “unstable”.

For the molecule `CC(=O)C[Se]C(=O)c1ccc(Cl)cc1` [EDA-71, Se-(2-oxopropyl) 4-chlorobenzoselenoate], the “chemical stability in the alkaline environment” value was “unstable”.

For `CC(C)(C)C(=O)C[Se]C(=O)c1ccc(Cl)cc1` [EDA-73, Se-(3,3-dimethyl-2-oxobutyl) 4-chlorobenzoselenoate], the “chemical stability in the alkaline environment” value is on record as “unstable”.

On to `COc1cc(OC)cc(C(=O)[Se]CC(=O)C(C)(C)C)c1` [EDA-74, Se-(3,3-dimethyl-2-oxobutyl) 3,5-dimethoxybenzoselenoate], for which the “chemical stability in the alkaline environment” value is listed as “unstable”.

Another data set can be described thus: PAMPA membrane permeability test (capillary electrophoresis). It counts as in vitro ADME.
Conditions: not given
How it is done:
The passive transport and membrane absorption of 5 selected selenocompounds (EDA-58, EDA-71, EDA-119, EDA-122, and EDA-A6) were evaluated with the in vitro parallel artificial membrane permeability assay (PAMPA). This PAMPA assay could provide better predictability and membrane permeability correlations compared to the data obtained for human absorption in the Caco-2 cell line. The Precoated PAMPA Plate System Gentest™ (Corning, Bradford, MA, USA) was used to perform the permeability assay for the 5 selected Se compounds. The protocol of the permeability assay was similar to the previously described ones and is detailed in the Supplementary Materials.
Five selenocompounds (EDA-58, EDA-71, EDA-119, EDA-122, and EDA-A6) were evaluated with the PAMPA in vitro assay using the CE technique.
[formula] Scheme 1 Calculation of the in vitro permeability (cm/s). A (filter area) cm^2 = 0.3; VD (donor well volume) mL = 0.3; VA (acceptor well volume) mL = 0.2; t (incubation time) seconds = 18,000; CA(t) (compound concentration in acceptor well at time t); CD(t) (compound concentration in donor well at time t). […]
1.3. PAMPA test: membrane permeability evaluation.
The passive transport and the membrane absorption of 5 selected selenocompounds (EDA-58, EDA-71, EDA-119, EDA-122, EDA-A6) were evaluated in the in vitro Parallel Artificial Membrane Permeability Assay (PAMPA). The protocol of the permeability assay was similar to the ones previously described.
1.3.1. Stock solutions and sample preparation for PAMPA test
Working solutions of the tested compounds at the concentration of the 50 μM in the phosphate saline buffer (PBS, pH 7.4) were prepared from the stocks in the pure dimethyl sulfoxide (DMSO) and stored at -20° C. Moreover, to draw the precise calibration curves for each tested (EDA-58, EDA-71, EDA-119, EDA-122, EDA-A6) and reference com- […]
The Precoated PAMPA Plate System Gentest™ (Corning, Bradford, MA, USA) was used to perform permeability assay for the 5 selected Se-compounds. The essential part of […]
solvents. PAMPA Plate System was brought to room temperature 30 min before use.
The 96-well filter plate precoated with lipids was used as a permeation acceptor, whereas the 96-well receiver plate acted as the permeation donor plate. Therefore, the compound solutions were added to the wells (300 μL/well) of the receiver plate and PBS was added to wells (200 μL/well) of the precoated filter plate.
Then, the filter plate was coupled with the receiver plate and both were incubated at room temperature for five hours without agitation. […] Fi-nally, the permeability coefficients (Pe, [cm/s]) of the tested compounds were estimated using the formula provided by the PAMPA Plate System manufacturer.
1.3.3. Capillary electrophoresis (CE) analytical method […]
were calculated in both the donor and acceptor compartments using the capillary electro-
Turning to `C[Se]C(=O)c1ccc(C(=O)[Se]C)s1` [EDA-122, Se,Se-dimethyl thiophene-2,5-bis(carboselenoate)], the “permeability compared with caffeine” value is on record as “higher permeability values than caffeine”.

Regarding `O=C1[Se]C(=O)c2ccccc21` [EDA-A6, benzo[c]selenophene-1,3-dione], the “permeability compared with caffeine” value is reported as “higher permeability values than caffeine”.

`C[Se]C(=O)c1cccc(C(=O)[Se]C)n1` [EDA-119, Se,Se-dimethyl pyridine-2,6-bis(carboselenoate)]: the “permeability compared with caffeine” value is on record as “lower permeability values than caffeine”.

`CC(=O)C[Se]C(=O)c1ccc(Cl)cc1` [EDA-71, Se-(2-oxopropyl) 4-chlorobenzoselenoate]: the “permeability compared with caffeine” value is given as “higher permeability values than caffeine”.

Turning to `COC(=O)C[Se]C(=O)c1cc(OC)cc(OC)c1` [EDA-58, methyl 2-((3,5-dimethoxybenzoyl)selanyl)acetate], the “permeability compared with caffeine” value is reported as “lower permeability values than caffeine”.

The same data set, now with this note: 50 μM in PBS pH 7.4, 5 h, room temperature, read-out: In Vitro Permeability.
As to `C[Se]C(=O)c1ccc(C(=O)[Se]C)s1` [EDA-122, Se,Se-dimethyl thiophene-2,5-bis(carboselenoate)], the Papp at 5 h, 50 µM came to 4.67 ×10⁻⁶ cm/s.

As for `O=C1[Se]C(=O)c2ccccc21` [EDA-A6, benzo[c]selenophene-1,3-dione], the Papp at 5 h, 50 µM turned out to be 3.44 ×10⁻⁶ cm/s.

As to `C[Se]C(=O)c1cccc(C(=O)[Se]C)n1` [EDA-119, Se,Se-dimethyl pyridine-2,6-bis(carboselenoate)], the Papp at 5 h, 50 µM worked out at 3.27 ×10⁻⁶ cm/s.

With `CC(=O)C[Se]C(=O)c1ccc(Cl)cc1` [EDA-71, Se-(2-oxopropyl) 4-chlorobenzoselenoate], the Papp at 5 h, 50 µM came to 3.86 ×10⁻⁶ cm/s.

For `COC(=O)C[Se]C(=O)c1cc(OC)cc(OC)c1` [EDA-58, methyl 2-((3,5-dimethoxybenzoyl)selanyl)acetate], the Papp at 5 h, 50 µM is 2.22 ×10⁻⁶ cm/s.

Staying with this data set, now noted: 5 h.
Take `C[Se]C(=O)c1ccc(C(=O)[Se]C)s1` [EDA-122, Se,Se-dimethyl thiophene-2,5-bis(carboselenoate)]: the “% Perm. (percentage that crossed from the donor well to the acceptor well)” value is 8.20%.

Turning to `O=C1[Se]C(=O)c2ccccc21` [EDA-A6, benzo[c]selenophene-1,3-dione], the “% Perm. (percentage that crossed from the donor well to the acceptor well)” value worked out at 6.08%.

Turning to `C[Se]C(=O)c1cccc(C(=O)[Se]C)n1` [EDA-119, Se,Se-dimethyl pyridine-2,6-bis(carboselenoate)], the “% Perm. (percentage that crossed from the donor well to the acceptor well)” value is reported as 5.79%.

For `CC(=O)C[Se]C(=O)c1ccc(Cl)cc1` [EDA-71, Se-(2-oxopropyl) 4-chlorobenzoselenoate], the “% Perm. (percentage that crossed from the donor well to the acceptor well)” value is 6.81%.

On to `COC(=O)C[Se]C(=O)c1cc(OC)cc(OC)c1` [EDA-58, methyl 2-((3,5-dimethoxybenzoyl)selanyl)acetate], for which the “% Perm. (percentage that crossed from the donor well to the acceptor well)” value was determined as 3.95%.
